Data on 7 compounds can be found in ChEMBL document CHEMBL5357001, “Coriaceumins A-D, the First Nitrogen-Containing Crenulide Diterpenoids from the Brown Alga Dictyota coriacea Collected in the East China Sea” (J Nat Prod, 2024).

For one assay, the system named is HL-60. Kind of assay: Cytotoxicity against human HL-60 cells assessed as reduction in cell viability at 20 uM incubated for 3 days by CCK-8 assay. In kind it is functional, cell-based. Conditions: time 3.0 day. For orientation: Tetrazolium assays rely on reduction of a dye to a coloured formazan, in cell work by metabolically active cells.
Another assay deals with A549. The experiment in a line: Cytotoxicity against human A549 cells assessed as reduction in cell viability at 20 uM incubated for 3 days by CCK-8 assay. Type of assay: functional, cell-based. The following applies: time 3.0 day.
Assay [1] deals with T1, Tyrosine-protein phosphatase non-receptor type 1 (Homo sapiens) (UniProt P18031).
T1 sequence (whole entry): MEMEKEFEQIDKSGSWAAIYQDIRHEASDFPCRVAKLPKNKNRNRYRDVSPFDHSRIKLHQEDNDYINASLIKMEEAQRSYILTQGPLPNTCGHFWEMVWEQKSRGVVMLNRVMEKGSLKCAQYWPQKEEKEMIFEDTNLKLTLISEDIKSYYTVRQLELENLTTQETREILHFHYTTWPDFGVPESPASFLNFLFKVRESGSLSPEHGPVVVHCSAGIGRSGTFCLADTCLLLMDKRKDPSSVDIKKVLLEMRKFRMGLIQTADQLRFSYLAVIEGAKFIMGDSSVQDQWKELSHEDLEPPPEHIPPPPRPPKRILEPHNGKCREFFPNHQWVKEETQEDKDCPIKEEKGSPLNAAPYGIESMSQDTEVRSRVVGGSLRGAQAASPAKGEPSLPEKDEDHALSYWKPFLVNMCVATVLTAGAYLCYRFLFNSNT
The experiment in a line: Inhibition of recombinant PTP1B (unknown origin) using pNPP as substrate at 20 uM relative to control.

For assay [2], the target named is T2, Tyrosine-protein phosphatase non-receptor type 1 (Homo sapiens, UniProt P18031).
T2 sequence (P18031 whole entry): T1 sequence (whole entry)
The experiment in a line: Inhibition of recombinant PTP1B (unknown origin) using pNPP as substrate relative to control.

The source made the active and inactive calls. The calls are words filed in the database; no cut-off is given here.

In the case of `CCO[C@@H]1C/C=C(\C)CC[C@@H]([C@H](C)CCC=C(C)C)C2=C1C(=O)N[C@H]2O`, the outcome in the assay on HL-60 and in the assay on A549 was inactive. For the same compound, the inhibition (in general, the change of the read-out against control, counted positive when it falls) in assay [1] came out at 81%. For the same compound, the IC50 – broadly, the concentration at which inhibition is half-maximal – in assay [2] amounted to 9.5 µM.

For the compound `CC(C)=CCC[C@@H](C)[C@H]1C2=C(C(=O)OC2)[C@H]2C[C@H]2[C@H](C)C[C@H]1O`, the outcome in the assay on HL-60 and with A549 was inactive. The inhibition in assay [1] was 86%. In assay [2], the IC50 came to 7.3 µM.

Turning to `CC(=O)O[C@@H]1C[C@@H](C)[C@@H]2C[C@@H]2C2=C(CNC2=O)[C@@H]1[C@H](C)CCC=C(C)C`, the outcome in the assay on HL-60 and in the assay with A549 was inactive. For the same compound, in assay [1], the inhibition came to 73%. Moreover, the IC50 in assay [2] was determined as 13 µM.

Turning to `CC(=O)O[C@@H]1C[C@@H](C)[C@@H]2C[C@@H]2C2=C(C(=O)NC2)[C@@H]1[C@H](C)CCC=C(C)C`, the outcome in the assay with HL-60 and with A549 was inactive. In assay [1], the inhibition came to 52%. The IC50 in assay [2] was 19 µM.

With `CC(C)=CCC[C@@H](C)[C@H]1C2=C(C(=O)NC2)[C@H]2C[C@H]2[C@H](C)C[C@H]1O`, the result in the assay with HL-60 and in the assay on A549 was inactive. For the same compound, in assay [1], the inhibition stood at 40%.

Consider `C=C(C)C(=O)CC[C@@H](C)[C@H]1C2=C(CNC2=O)[C@H]2C[C@H]2[C@H](C)C[C@H]1OC(C)=O`, for which the outcome with HL-60 and with A549 was inactive. In addition, the inhibition in assay [1] came out at 47%.

In the case of `CCO[C@@H]1C/C=C(\C)CC[C@@H]([C@H](C)CCC=C(C)C)C2=C1C(=O)N[C@@H]2O`, the outcome with HL-60 and in the assay with A549 was inactive. Also, the inhibition in assay [1] was 38%.
